From patent publication US20240400638A1, “COMBINATION OF RELAXIN AND VASOPRESSIN ANALOGUES FOR TREATMENT OF RENAL DISORDERS OR CONDITIONS” (River 2 Renal Corp., priority 2021, published 2024)
One block for each molecule: values may come before it. Numbered stars: 1 amine (or outer) side, 2 acyl side, 3 side chain; on linkers, the order of the positions; unused ones are H or OH. Bridge positions count the residues as written; N and C are the ends. Square brackets hold non-standard residues; d marks the D form. Side chains are listed from the residue outwards. Peptide text beside a SMILES is read from it. * marks the point of attachment. X2 = CCCCCCCCCCCCCCCCCC(=O)N[C@@H](CCC(=O)N[C@@H](CCC(=O)N[C@@H](CCC(=O)NCCCOCCOCCOCCCNC(=O)CCC(=O)NCCCOCCOCCOCCCNC(=O)CCC(=O)NCCCOCCOCCOCCCNC(=O)CCC(=O)NCCCOCCOCCOCCCN*)C(=O)O)C(=O)O)C(=O)O; X1 = CCCCCCCCCCCCCCCC(=O)N[C@@H](CCC(=O)N[C@@H](CCC(=O)N[C@@H](CCC(=O)NCCCOCCOCCOCCCNC(=O)CCC(=O)NCCCOCCOCCOCCCNC(=O)CCC(=O)NCCCOCCOCCOCCCN*)C(=O)O)C(=O)O)C(=O)O; Suc = O=C(CCC(=O)[*:2])[*:1]; Aib = CC(C)(N)C(=O)O

Assays:
human RXFP1 [1] = molecular target: T1, human RXFP1 (Homo sapiens, UniProt Q9HBX9); assay: In vitro OVCAR5 cAMP assay (HTRF); format: cell-based; conditions: OVCAR 5 cells (cAMP); for EC50: Table 2; for Emax: maximal cAMP relative to human relaxin-2, Table 2
T1 construct: OVCAR5 cells expressing endogenous human RXFP1; endogenous in cells; host or cells: OVCAR5 cells
T1 sequence (Q9HBX9 1-757): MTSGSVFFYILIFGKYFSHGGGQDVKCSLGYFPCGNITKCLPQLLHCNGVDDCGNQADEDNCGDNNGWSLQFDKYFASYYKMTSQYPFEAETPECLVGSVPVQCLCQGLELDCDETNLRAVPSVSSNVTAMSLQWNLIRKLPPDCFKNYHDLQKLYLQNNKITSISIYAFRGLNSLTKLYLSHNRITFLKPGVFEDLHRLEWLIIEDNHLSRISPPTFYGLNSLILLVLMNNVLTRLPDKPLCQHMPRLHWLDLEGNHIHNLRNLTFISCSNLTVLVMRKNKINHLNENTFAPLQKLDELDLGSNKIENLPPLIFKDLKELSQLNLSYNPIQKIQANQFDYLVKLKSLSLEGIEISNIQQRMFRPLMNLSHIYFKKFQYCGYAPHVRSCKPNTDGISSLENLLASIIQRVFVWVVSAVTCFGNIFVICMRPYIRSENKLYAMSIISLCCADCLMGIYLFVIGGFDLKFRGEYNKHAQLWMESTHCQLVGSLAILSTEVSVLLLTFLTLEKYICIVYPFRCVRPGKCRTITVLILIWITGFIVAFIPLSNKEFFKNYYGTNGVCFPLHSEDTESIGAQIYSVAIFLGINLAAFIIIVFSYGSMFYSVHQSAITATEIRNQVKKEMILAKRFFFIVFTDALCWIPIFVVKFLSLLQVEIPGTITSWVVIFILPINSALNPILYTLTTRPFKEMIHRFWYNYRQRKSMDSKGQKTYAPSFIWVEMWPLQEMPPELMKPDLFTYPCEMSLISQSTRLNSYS
Text: OVCAR5 cells expressing endogenous human RXFP1 were used to test RXFP1 agonist properties of relaxin peptide analogues, and in particular of the peptides of sequence SEQ ID NO: 1-97.
Since RXFP1 is a Gs coupled GPCR, increases in cAMP was used as readout of RXFP1 activation.
Isobutyl methyl xanthine (IBMX) was used to inhibit phosphodiesterase activity facilitating cAMP measurements. HTRF (Homogenous Time Resolved Fluorescence) technology was used to detect cAMP due to its high sensitivity.
In summary, OVCAR5 were grown in regular medium (RPMI) containing 10% fetal calf serum (FCS) and 1% antibiotics (penicillin/streptomycin).
Before the experiments, cells were detached with accutase and incubated for 40 minutes at 37° C. with 1 mM (3-isobutyl-1-methylxanthine) IBMX.
Cells were then distributed in 384 black well plates containing increasing concentrations of the different peptides in a fix volume of medium (without FCS).
After an incubation of 30 min at 37° C. in a humid incubator in 5% CO2, the reaction was stopped by adding a fixed volume of a solution containing a lysis buffer and cAMP-D2 (cAMP labeled with the dye d2) and the anti-cAMP antibody linked to Europium and used for cAMP detection.
Readout of the experiment were performed on a fluorimeter allowing HTRF measurement. Activation curves were generated by plotting the intracellular value of cAMP versus log 10 of the compound concentration.
The 50% activation concentration (EC50) was calculated by nonlinear regression using the sigmoidal dose-response (variable slope) equation with Prism 5 software.
Emax % was determined as the maximal intracellular value of cAMP for test compound (upper limit of cAMP vs concentration curve) divided by the maximal intracellular value of cAMP for human relaxin-2 (H2-R1x) determined in the same test occasion multiplied by 100.

[2] = cited from earlier work
human RXFP1 [3] = molecular target: T2, human RXFP1 (human, UniProt Q9HBX9 1-757); assay: cell-based or functional assay
T2 sequence (looked up): T1 sequence (Q9HBX9 1-757)

Molecule: NCCCC[C@H](NC(=O)[C@@H]1CCCN1C(=O)[C@@H]1CSSC[C@H](NC(=O)CNC(=O)CNC(=O)CN)C(=O)N[C@@H](Cc2ccc(O)cc2)C(=O)N[C@@H](Cc2ccccc2)C(=O)N[C@@H](CCC(N)=O)C(=O)N[C@@H](CC(N)=O)C(=O)N1)C(=O)NCC(N)=O [terlipressin, Terlipressin] (H-GGGCYFQNCPKG-NH2; disulfide 4-9)
- mortality ([2]; at 3 months, patients receiving terlipressin and standard of care (e.g., albumin), Wong et al. 2021): 51%
- patients requiring discontinuation of treatment for severe side effects ([2]; human, in vivo): up to 10%
- patients with side effects ([2]; human, in vivo): up to 40%

Molecule: CCCCCCCCCCCCCCCCCC(=O)N[C@@H](CCC(=O)N[C@@H](CCC(=O)N[C@@H](CCC(=O)NCCCOCCOCCOCCCNC(=O)CCC(=O)NCCCOCCOCCOCCCNC(=O)CCC(=O)NCCCOCCOCCOCCCNC(=O)CCC(=O)NCCCOCCOCCOCCCNC(=O)CCC(=O)NCCCC[C@H](NC(=O)CNC(=O)[C@H](CCC(=O)O)NC(=O)C(C)(C)NC(=O)C(C)(C)NC(=O)[C@@H](NC(=O)[C@H](CCCCNC(C)=O)NC(=O)[C@H](C)NC(=O)[C@H](CCCNC(=N)N)NC(=O)[C@@H](NC(=O)[C@H](CCCCN)NC(=O)[C@H](CCC(=O)O)NC(=O)[C@H](CCCNC(=N)N)NC(=O)CNC(=O)[C@H](CCC(=O)O)NC(=O)[C@H](CC(C)C)NC(C)=O)C(C)C)[C@@H](C)CC)C(=O)N[C@@H](CO)C(=O)N[C@H](C(=O)N[C@@H](Cc1ccccc1)C(=O)N[C@@H](CO)C(=O)NC(C)(C)C(=O)N[C@@H](CCCNC(=N)N)C(=O)N[C@@H](CCCCN)C(=O)N[C@@H](CCCCNC(C)=O)C(N)=O)[C@@H](C)O)C(=O)O)C(=O)O)C(=O)O [compound 59] (Ac-LEGREKVRAK(Ac)I[Aib][Aib]EGK([Suc-X2])STFS[Aib]RKK(Ac)-NH2)
- EC50 (human RXFP1 [1]): 0.09 nM
- Emax (human RXFP1 [1]): 99%

Second part, the molecule after the results:

- EC50 (human RXFP1 [1]): 0.54 nM
- Emax (human RXFP1 [1]): 95%
Molecule: CCCCCCCCCCCCCCCC(=O)N[C@@H](CCC(=O)N[C@@H](CCC(=O)N[C@@H](CCC(=O)NCCCOCCOCCOCCCNC(=O)CCC(=O)NCCCOCCOCCOCCCNC(=O)CCC(=O)NCCCOCCOCCOCCCNC(=O)CCC(=O)NCCCC[C@H](NC(=O)CNC(=O)[C@H](CCC(=O)O)NC(=O)C(C)(C)NC(=O)C(C)(C)NC(=O)[C@@H](NC(=O)[C@H](CCCCNC(C)=O)NC(=O)C(C)(C)NC(=O)[C@H](CCCNC(=N)N)NC(=O)[C@@H](NC(=O)[C@H](CCCCN)NC(=O)[C@H](CCC(=O)O)NC(=O)[C@H](CCCNC(=N)N)NC(=O)CNC(=O)[C@H](CCC(=O)O)NC(=O)[C@H](CC(C)C)NC(C)=O)C(C)C)[C@@H](C)CC)C(=O)N[C@@H](CO)C(=O)N[C@H](C(=O)N[C@@H](Cc1c[nH]c2ccccc12)C(=O)N[C@@H](CO)C(=O)NC(C)(C)C(=O)N[C@@H](CCCNC(=N)N)C(=O)N[C@@H](C)C(=O)N[C@@H](CCCCNC(C)=O)C(N)=O)[C@@H](C)O)C(=O)O)C(=O)O)C(=O)O [compound 82] (Ac-LEGREKVR[Aib]K(Ac)I[Aib][Aib]EGK([Suc-X1])STWS[Aib]RAK(Ac)-NH2)

- EC50 (nM), cAMP assay in OVCAR 5 cells (human RXFP1 [3]): 206 nM
- Emax, cAMP assay in OVCAR 5 cells (human RXFP1 [3]): 84%
Molecule: Ac-VIKLSGRELVRAQIAISGMSTWSKKKK-NH2 [KKKK(AcB7-29 C11.23S)]
